Experimental data reported in patent US20100222285A1, “METHOD OF CONTROLLING THE PROLIFERATION OF VASCULAR ENDOTHELIAL CELLS AND INHIBITING LUMEN FORMATION” (Rare Sugar Production Technical Research Laboratories, LLC, priority 2004, published 2010).
Entries after “also recorded” stand apart in the source; their conditions may differ. Where two headings read alike, the source gives them in different places.

Tests used:
[1] = cited from earlier work; for Ald type (%): aldehyde structure; for Fra α (%): furanose α-anomer; for Fra β (%): furanose β-anomer; for Pira β (%): pyranose β-anomer; for Pira α (%): pyranose α-anomer
[2] = tested on: Human umbilical cord vascular endothelial cells (HUVEC); assay: Experiment of growth: HUVEC cell number by WST-8 after 48 hrs; assay type: cell-based; details: for inhibition at 20000 µM: Homo sapiens, HUVEC, 20 mM, read-out: inhibition of growth to the control group; for antagonism of the growth inhibitory effect by D-glucose: co-existence of 20 mM D-glucose
Procedure: Human umbilical cord vascular endothelial cells (HUVEC) were purchased as primary cultured cells from KURABO (Kurabo Co., Osaka, Japan) and the cells up to P8 were used in experiments. The cells were inoculated on a 96-well plate at a rate of 3000 cells/well, and allowed to stand in Humedia EG2 (Kurabo) overnight (37° C., 5% CO2). Next morning, the medium was replaced by 90 μl of 2% FBS-containing Humedia EB2 (Kurabo), to which was then added 10 μl of additive, and after a lapse of 48 hrs the number of cells was counted. No medium was exchanged during this period. In counting, a tetrazolium salt WST-8 was added to each well (0.5 mM), and after 2 hrs the absorbance was measured at 450 nm. The tetrazolium salt added was reduced with an intracellular dehydrogenase to yield formazan depending on the number of cells in the well. In advance, the absorbance at 450 nm was confirmed to show a linearity within the range of 500 to 12000 cells in the well.

[3] = tested on: human endothelial cells and fibroblasts; assay: Experiment of luminal formation: concurrent culture, CD31 staining, area of the lumen; assay type: cell-based; details: for effect on the luminal formation: Example 1, 0.1-20 mM, 10 days; for effect on the luminal formation of HUVEC: Example 2 (36 species), incubation for 10 days; for inhibition at 20000 µM / inhibition at 1000 µM / inhibition at 2500 µM: Homo sapiens; for inhibition at 20000 µM: 20 mM; for antagonism of the luminal formation inhibitory effect by D-glucose: co-existence of 20 mM D-glucose; for inhibition of the acceleration of luminal formation by VEGF: with VEGF; for inhibition at 1000 µM: 1 mM; for inhibition at 2500 µM: 2.5 mM
Procedure: Using a concurrent culture system of human endothelial cells and fibroblasts planted on a 24-well plate (Kurabo Co., Osaka, Japan), the culture medium was replaced by culture media containing a variety of additives at the early stage of luminal formation. Every 3 days, the medium was exchanged with the additive; 10 day after incubation, the endothelial cell only was stained by using mouse anti-human CD31 antibody (Kurabo Co., Osaka, Japan), goat anti-mouse IgG AlkP Conjugate (Kurabo Co., Osaka, Japan), and BCPI (5-bromo-4-chloro-3-indolyl phosphate) (Kurabo Co., Osaka, Japan) to photograph. The visualized area of the lumen was measured by means of NIH image software.

[4] = Example 2 (36 species), 48 hours

## O=C[C@H](O)[C@H](O)[C@H](O)[C@H](O)CO [Allose]
[1]
  Ald type (%): 1.38%
  Fra α (%): 5%
  Fra β (%): 7%
  Pira β (%): 70%

## O=C[C@H](O)[C@H](O)[C@H](O)CO [RIB, D-ribose]
[2]; Example 1, 0.1-20 mM, 48 hrs
  effect on the growth of HUVEC: no influence
[3]
  effect on the luminal formation: effect was confirmed
  effect on the luminal formation of HUVEC: inhibitory effect was observed
  inhibition at 20000 µM: 50 to 80%
  antagonism of the luminal formation inhibitory effect by D-glucose: no apparent effect
  inhibition of the acceleration of luminal formation by VEGF: inhibit the acceleration by VEGF

## O=C[C@@H](O)[C@H](O)[C@H](O)CO [Arabinose]
[1]
  Ald type (%): 0.28%
  Pira β (%): 34%
[1]; chair form of pyranose α
  C1/1C: 1C
[1]; chair form of pyranose β
  C1/1C: mix
[1]; furanose, total of α and β
  Fra α + Fra β total (%): total 3%

## O=C(CO)[C@H](O)[C@@H](O)[C@@H](O)CO [LFR, L-fructose]
[2]; [4]
  effect on the growth of HUVEC: no remarkable effect

## O=C(CO)[C@H](O)[C@@H](O)[C@H](O)CO [DSO, D-sorbose]
[2]; [4]
  effect on the growth of HUVEC: no remarkable effect

## O=C[C@@H](O)[C@H](O)[C@@H](O)[C@H](O)CO [Idose]
[1]; chair form of pyranose α
  C1/1C: mix
[1]
  Fra α (%): 16%
  Fra β (%): 16%
  Pira β (%): 37%

## O=CC[C@@H](O)[C@@H](O)CO [LDR, 2-deoxy-L-ribose]
[2]; Example 1, 0.1-20 mM, 48 hrs
  effect on the growth of HUVEC: effect was confirmed
[2]; [4]
  effect on the growth of HUVEC: inhibitory effect was observed
[2]; 48 hrs
  inhibition at 20000 µM: 40 to 80%
[2]
  antagonism of the growth inhibitory effect by D-glucose: no antagonism
[3]
  effect on the luminal formation: effect was confirmed
  effect on the luminal formation of HUVEC: inhibitory effect was observed; also recorded: strong action
  inhibition at 1000 µM: ~20%
  inhibition at 2500 µM: > 95%
  antagonism of the luminal formation inhibitory effect by D-glucose: no apparent effect
  inhibition of the acceleration of luminal formation by VEGF: inhibit the acceleration by VEGF

## O=C(CO)[C@@H](O)[C@H](O)[C@@H](O)CO [SOR, L-sorbose]
[2]; Example 1, 0.1-20 mM, 48 hrs
  effect on the growth of HUVEC: effect was confirmed; also recorded: inhibitory effect for growth
[2]; [4]
  effect on the growth of HUVEC: growth inhibition; also recorded: inhibitory effect was observed
[2]; 48 hrs
  inhibition at 20000 µM: 40 to 80%
[2]
  antagonism of the growth inhibitory effect by D-glucose: no antagonism
[3]
  effect on the luminal formation: no influence

## O=C(CO)[C@@H](O)[C@H](O)[C@H](O)CO [FRU, D-fructose]
[2]; [4]
  effect on the growth of HUVEC: no remarkable effect

## O=CC[C@H](O)[C@H](O)CO [DRI, 2-deoxy-D-ribose]
[2]; Example 1, 0.1-20 mM, 48 hrs
  effect on the growth of HUVEC: effect was confirmed
[2]; [4]
  effect on the growth of HUVEC: inhibitory effect was observed
[2]; 48 hrs
  inhibition at 20000 µM: 40 to 80%
[2]
  antagonism of the growth inhibitory effect by D-glucose: no antagonism
[3]
  effect on the luminal formation: effect was confirmed
  effect on the luminal formation of HUVEC: inhibitory effect was observed; also recorded: strong action
  inhibition at 1000 µM: ~20%
  inhibition at 2500 µM: > 95%
  antagonism of the luminal formation inhibitory effect by D-glucose: no apparent effect
  inhibition of the acceleration of luminal formation by VEGF: inhibit the acceleration by VEGF

## O=C[C@H](O)[C@@H](O)[C@H](O)[C@H](O)CO [D-glucose]
[2]; Example 1, 0.1-20 mM, 48 hrs
  effect on the growth of HUVEC: no difference; also recorded: does not inhibit
[1]; in an aqueous solution
  share of the chair type C1: ~100%
[3]
  effect on the luminal formation: does not inhibit

## O=C[C@H](O)[C@@H](O)[C@@H](O)[C@H](O)CO [Galactose]
[1]
  Ald type (%): 0.082%
  Fra α (%): trace
  Fra β (%): trace
  Pira β (%): 64%

## O=C[C@H](O)[C@H](O)[C@@H](O)[C@H](O)CO [GUL, D-gulose]
[2]; Example 1, 0.1-20 mM, 48 hrs
  effect on the growth of HUVEC: no influence
[3]
  effect on the luminal formation: effect was confirmed
  effect on the luminal formation of HUVEC: inhibitory effect was observed
  inhibition at 20000 µM: 50 to 80%
  antagonism of the luminal formation inhibitory effect by D-glucose: no apparent effect
  inhibition of the acceleration of luminal formation by VEGF: inhibit the acceleration by VEGF

## O=C[C@@H](O)[C@@H](O)[C@@H](O)[C@@H](O)CO [LAL, L-allose]
[2]; Example 1, 0.1-20 mM, 48 hrs
  effect on the growth of HUVEC: no influence
[3]
  effect on the luminal formation: effect was confirmed
  effect on the luminal formation of HUVEC: inhibitory effect was observed
  inhibition at 20000 µM: 50 to 80%
  antagonism of the luminal formation inhibitory effect by D-glucose: antagonized

## O=C(CO)[C@@H](O)[C@@H](O)[C@H](O)CO [Tagatose]
[1]
  Pira α (%): 89%
  Pira β (%): 11%

## O=C[C@H](O)C[C@H](O)[C@H](O)CO [3DG, 3-deoxy-D-glucose]
[2]; Example 1, 0.1-20 mM, 48 hrs
  effect on the growth of HUVEC: effect was confirmed
[2]; Example 1, 0.1-20 mM, 48 hrs, listed as 3-deoxy-D-glucose
  effect on the growth of HUVEC: inhibit both
[2]; [4]
  effect on the growth of HUVEC: inhibitory effect was observed
[2]; 48 hrs
  inhibition at 20000 µM: 40 to 80%
[2]
  antagonism of the growth inhibitory effect by D-glucose: antagonized
[3]
  effect on the luminal formation: effect was confirmed
  effect on the luminal formation of HUVEC: inhibitory effect was observed
  inhibition at 20000 µM: 50 to 80%
  antagonism of the luminal formation inhibitory effect by D-glucose: no apparent effect
[3]; listed as 3-deoxy-D-glucose
  effect on the luminal formation: inhibit both

## O=C[C@@H](O)[C@H](O)[C@H](O)[C@H](O)CO [ALT, D-altrose]
[2]; Example 1, 0.1-20 mM, 48 hrs
  effect on the growth of HUVEC: no influence
[3]
  effect on the luminal formation: effect was confirmed
  effect on the luminal formation of HUVEC: inhibitory effect was observed
  inhibition at 20000 µM: 50 to 80%
  antagonism of the luminal formation inhibitory effect by D-glucose: no apparent effect
  inhibition of the acceleration of luminal formation by VEGF: inhibit the acceleration by VEGF

## O=C[C@@H](O)[C@@H](O)[C@@H](O)[C@H](O)CO [TAO, D-talose]
[2]; Example 1, 0.1-20 mM, 48 hrs
  effect on the growth of HUVEC: no influence
[3]
  effect on the luminal formation: effect was confirmed
  effect on the luminal formation of HUVEC: inhibitory effect was observed
  inhibition at 20000 µM: 50 to 80%

## O=C(CO)[C@H](O)[C@H](O)[C@H](O)CO [Psicose]
[1]; chair form of pyranose β
  C1/1C: 1C
[1]
  Pira α (%): 33%
  Pira β (%): 67%

## O=C[C@@H](O)[C@@H](O)[C@H](O)CO [Lyxose]
[1]
  Ald type (%): 0.4%
  Pira β (%): 28%
[1]; chair form of pyranose α
  C1/1C: mix

## O=C[C@H](O)[C@H](O)[C@H](O)CO [Ribose]
[1]
  Ald type (%): 8.5%
  Fra α (%): 6%
  Fra β (%): 18%
  Pira β (%): 56%
[1]; chair form of pyranose α
  C1/1C: mix
[1]; chair form of pyranose β
  C1/1C: mix

## O=C(CO)[C@@H](O)[C@@H](O)[C@H](O)CO [TAG, D-tagatose]
[2]; [4]
  effect on the growth of HUVEC: no remarkable effect

## O=C[C@H](O)[C@@H](O)[C@H](O)CO [Xylose]
[1]
  Ald type (%): 0.17%
  Pira β (%): 63%

## O=C(CO)[C@@H](O)[C@H](O)[C@H](O)CO [Fructose]
[1]; chair form of pyranose α
  C1/1C: mix
[1]; chair form of pyranose β
  C1/1C: 1C
[1]
  Pira α (%): 28%
  Pira β (%): 72%

## O=C(CO)[C@H](O)[C@H](O)[C@@H](O)CO [LTA, L-tagatose]
[2]; [4]
  effect on the growth of HUVEC: no remarkable effect

## O=C(CO)[C@@H](O)[C@@H](O)[C@@H](O)CO [LPS, L-psicose]
[2]; [4]
  effect on the growth of HUVEC: no remarkable effect

## O=C[C@@H](O)[C@@H](O)[C@@H](O)CO [LRI, L-ribose]
[2]; Example 1, 0.1-20 mM, 48 hrs
  effect on the growth of HUVEC: no influence
[3]
  effect on the luminal formation: effect was confirmed
  effect on the luminal formation of HUVEC: inhibitory effect was observed
  inhibition at 20000 µM: 50 to 80%
  antagonism of the luminal formation inhibitory effect by D-glucose: no apparent effect
  inhibition of the acceleration of luminal formation by VEGF: inhibit the acceleration by VEGF
